Results: patent US10196436B2, “Inhibitors of the fibroblast growth factor receptor” (BLUEPRINT MEDICINES CORPORATION, priority 2012, dated 2019)
Entries after “also recorded” stand apart in the source; their conditions may differ. Like-named read-outs stand apart in the source and are kept apart here.

Tests used:
[1] = tested on: Hep3B cells; test: Induction of apoptosis, Caspase-Glo3/7 assay in Hep3B cells; type: cell-based; conditions: 6 hours
Protocol: Hep3B cells were seeded at 20 k/well in 96-well white plates in 200 ul of DMEM/5% FBS overnight. The next day compound was added at a final DMSO concentration of 0.1% and incubated for 6 hours. Caspase activity was measured according to manufacture instruction (Caspase-Glo3/7 Assay (Promega)). Briefly, 100 ul of Caspase-Glo3/7 reagent was added to each well and incubated for 1 hour in the dark. Luminescence was measured using EnVision.

[2] = tested on: Hep3B xenograft tumors; test: Hep3B liver cancer cell subcutaneous xenograft model, tumor growth inhibition; type: in vivo, Mus Musculus
Protocol: […] female nude mice (Mus Musculus) age 6 to 8 weeks were used. Tumor cell culture and inoculation: Hep3B cells were cultured with EMEM medium (Invitrogen, USA) supplemented with 10% FBS (Gibco, Australia). The cells were harvested in 90% confluence, and the viability was no less than 90%. Mice were implanted subcutaneously (s.c.) with 200 μL of 10×10^6 Hep3B cells in 50% Matrigel in the right flank at the beginning of the study.
Animal grouping and dosing schedule: Ten days after cell implantation, when tumors reached an average volume of 199 mm^3, 45 mice were selected based on tumor volume and randomly assigned to 5 treatment groups (n=9). The day of randomization was denoted as Do and the treatment was started from then on.
(§1) Tumor volume and body weight measurements: Tumor size was measured twice per week in two dimensions using a caliper, and the volume was expressed in mm^3 using the formula: V=0.5 a×b^2 where a and b were the long and short diameters of the tumor, respectively. Body weight was measured at least twice weekly.

[3] = target: wild type FGFR-1 (Homo sapiens (Human), UniProt P11362); test: FGFR-1 wild type assay at Km (Caliper electrophoretic mobility shift); type: biochemical; conditions: 400 uM ATP, 90 minutes, 25 C; read-out: FGFR1 IC50
Protocol: (§2) In order to assess the activity of chemical compounds against the relevant kinase of interest, the Caliper LifeSciences electrophoretic mobility shift technology platform is utilized. Fluorescently labeled substrate peptide is incubated in the presence dosed levels of compounds, a set concentration of kinase and of ATP, so that a reflective proportion of the peptide is phosphorylated. At the end of the reaction, the mix of phosphorylated (product) and non-phosphorylated (substrate) peptides are passed through the microfluidic system of the Caliper LabChip® EZ Reader II, under an applied potential difference. The presence of the phosphate group on the product peptide provides a difference in mass and charge between the product peptide and the substrate peptide, resulting in a separation of the substrate and product pools in the sample. As the pools pass the LEDS within the instrument, these pools are detected and resolved as separate peaks. The ratio between these peaks therefore reflects the activity of the chemical matter at that concentration in that well, under those conditions.
(§3) The reaction was stopped by the addition of 70 ul of Stop buffer (100 mM HEPES pH 7.5, 0.015% Brij 35, 35 mM EDTA and 0.2% of Coating Reagent 3 (Caliper Lifesciences)). The plate was then read on a Caliper EZReader 2 (protocol settings: −1.9 psi, upstream voltage −700, downstream voltage −3000, post sample sip 35 s).

[4] = tested on: MDA-MB-453 cells, which harbor an activating FGFR4 mutation; test: Cellular potency: phosphorylation of Erk in MDA-MB-453 cells (immunoblot); conditions: Homo sapiens, MDA-MB-453, 1 h, read-out: Potency (pErk IC50)
Protocol: Dose response in MDA-MB-453 cells, which harbor an activating FGFR4 mutation, was measured as follows. Briefly, MDA-MB-453 cells were seeded at 2.5×10^6 cells/6 well, and starved overnight. Compounds were added at varying concentrations (3000, 1000, 300, 100, and 30 nM) for 1 hour. Samples were collected and lysed for immunoblot analysis. The phosphorylation of Erk was measured and the average pErk value of three replicates was plotted with three parameter dose-response (inhibition) curve fit using Prism GraphPad software, which was used to determine the IC50 values.

[5] = type: in vivo; conditions: Hep3B-bearing nude mice, entire study period, current dosages and dosing schedule
Protocol: as §1
Body weight change (%) of Hep3B-bearing nude mice: FIG. 8 is a line graph depicting the body weight change (%) during the entire study period.

[6] = target: wild type FGFR-4 (Homo sapiens (Human), UniProt P22455); test: FGFR-4 wild type assay at Km (Caliper electrophoretic mobility shift); type: biochemical; conditions: for IC50: read-out: FGFR4 IC50; for Ratio FGFR1/FGFR4: [IC50 for FGFR1]/[IC50 for FGFR4]
Protocol: as §2
as §3, with “LabChip® EZ Reader II” for “EZReader 2”

[7] = tested on: panel of kinase assays; test: Kinase panel selectivity score from percent of DMSO control; conditions: kinases with POC less than 10 at 3 μM divided by total distinct kinases tested
[8] = target: FGFR-4 (Homo sapiens (Human), UniProt P22455); test: Crystal structure of compound bound to FGFR-4; type: binding
[9] = target: GST-tagged recombinant wild type FGFR-4 (Homo sapiens (Human), UniProt P22455); test: Covalency: mass spectrometry of protein-inhibitor complex; type: binding; conditions: 300 uM compound, 75 uM FGFR-4, 3 hours room temperature then 13 hours 4° C.
Protocol: The protein-inhibitor complex was then desalted using Pierce detergent removal columns (Thermo Pierce). The unmodified protein and protein-inhibitor complex were analyzed by electron spray mass spectrometry to determine their respective molecular weights.

Chain of wild type FGFR-4 (P22455 22-802): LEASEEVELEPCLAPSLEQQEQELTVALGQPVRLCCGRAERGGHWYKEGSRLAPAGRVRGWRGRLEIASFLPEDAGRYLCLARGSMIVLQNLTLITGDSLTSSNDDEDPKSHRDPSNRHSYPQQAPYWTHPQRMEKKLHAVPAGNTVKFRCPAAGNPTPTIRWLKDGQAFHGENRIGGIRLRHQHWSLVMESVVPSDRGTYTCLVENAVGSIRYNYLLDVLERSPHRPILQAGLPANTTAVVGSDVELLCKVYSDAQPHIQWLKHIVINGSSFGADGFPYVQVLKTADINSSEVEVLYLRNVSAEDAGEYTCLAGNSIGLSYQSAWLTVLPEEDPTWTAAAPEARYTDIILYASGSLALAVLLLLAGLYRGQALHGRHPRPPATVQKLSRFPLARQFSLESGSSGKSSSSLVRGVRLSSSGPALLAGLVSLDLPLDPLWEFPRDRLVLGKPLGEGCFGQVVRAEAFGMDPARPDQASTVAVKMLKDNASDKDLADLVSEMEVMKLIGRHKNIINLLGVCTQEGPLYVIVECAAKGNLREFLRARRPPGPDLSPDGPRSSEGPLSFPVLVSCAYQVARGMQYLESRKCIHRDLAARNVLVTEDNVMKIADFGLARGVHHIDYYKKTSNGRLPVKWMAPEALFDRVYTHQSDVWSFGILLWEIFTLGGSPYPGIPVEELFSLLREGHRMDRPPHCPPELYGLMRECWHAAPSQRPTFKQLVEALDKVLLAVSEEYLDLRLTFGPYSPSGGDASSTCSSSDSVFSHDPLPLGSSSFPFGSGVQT
Chain of wild type FGFR-1 (P11362 22-822): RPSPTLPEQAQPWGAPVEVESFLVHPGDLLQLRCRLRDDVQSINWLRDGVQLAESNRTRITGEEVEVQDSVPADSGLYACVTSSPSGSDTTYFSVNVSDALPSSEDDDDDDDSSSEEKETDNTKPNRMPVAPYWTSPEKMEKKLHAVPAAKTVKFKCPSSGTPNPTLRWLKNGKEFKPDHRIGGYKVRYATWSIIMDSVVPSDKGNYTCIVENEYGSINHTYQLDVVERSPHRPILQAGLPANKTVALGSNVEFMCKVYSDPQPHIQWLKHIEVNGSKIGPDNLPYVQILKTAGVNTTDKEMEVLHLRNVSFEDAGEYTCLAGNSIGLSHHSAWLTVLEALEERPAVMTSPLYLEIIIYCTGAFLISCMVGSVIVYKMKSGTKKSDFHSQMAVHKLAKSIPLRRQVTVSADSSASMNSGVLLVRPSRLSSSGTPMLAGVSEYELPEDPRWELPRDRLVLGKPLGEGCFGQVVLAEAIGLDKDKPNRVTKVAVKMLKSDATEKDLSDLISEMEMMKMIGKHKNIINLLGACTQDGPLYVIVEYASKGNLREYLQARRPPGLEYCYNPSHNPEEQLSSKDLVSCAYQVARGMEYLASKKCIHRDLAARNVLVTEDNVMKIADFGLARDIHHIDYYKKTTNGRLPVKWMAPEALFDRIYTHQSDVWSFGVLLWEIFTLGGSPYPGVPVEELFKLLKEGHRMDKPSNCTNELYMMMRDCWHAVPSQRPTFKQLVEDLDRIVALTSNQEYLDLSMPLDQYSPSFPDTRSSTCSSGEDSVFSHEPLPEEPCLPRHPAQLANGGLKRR
Chain of FGFR-4 (P22455 22-802): as the sequence (P22455 22-802) above
Chain of GST-tagged recombinant wild type FGFR-4 (P22455 460-802): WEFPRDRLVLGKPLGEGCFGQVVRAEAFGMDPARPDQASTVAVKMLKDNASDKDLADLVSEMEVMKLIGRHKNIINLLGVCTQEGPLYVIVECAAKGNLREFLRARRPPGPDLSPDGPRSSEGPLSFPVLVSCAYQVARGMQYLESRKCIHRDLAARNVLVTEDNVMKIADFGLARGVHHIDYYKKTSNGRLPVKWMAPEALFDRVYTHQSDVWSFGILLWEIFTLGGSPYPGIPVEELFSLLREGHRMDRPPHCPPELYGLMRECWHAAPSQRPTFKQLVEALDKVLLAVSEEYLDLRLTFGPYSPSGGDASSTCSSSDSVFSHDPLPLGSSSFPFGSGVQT

IC50 [4] [nM]	IC50 ([6]; 400 uM ATP, 90 minutes, 25 C) [nM]	Ratio FGFR1/FGFR4 [6]	SMILES	other results
1 to 10	< 10	A (the ratio is >500)	C=CC(=O)Nc1cccc(C)c1Nc1ncc2cc(-c3c(Cl)c(OC)cc(OC)c3Cl)cnc2n1 [COMPOUND 26, N-(2-((6-(2,6-dichloro-3,5-dimethoxyphenyl)pyrido[2,3-d]pyrimidin-2-yl)amino)-3-methylphenyl)acrylamide]	–
1 to 10	< 10	A (the ratio is >500)	C=CC(=O)Nc1cccc(C)c1Nc1ncc2cc(-c3c(Cl)c(OC)cc(OC)c3Cl)cc(OC)c2n1 [COMPOUND 41]	selectivity score [S(10) @3 μM] [7]: ≤ 0.030
< 1	< 10	E (the ratio is >10 and <50)	C=CC(=O)Nc1cccc(F)c1Nc1cc2c(cn1)cc(-c1c(Cl)c(OC)cc(OC)c1Cl)c(=O)n2C [COMPOUND 46]	–
1 to 10	< 10	C (the ratio is ≥100 and <200)	C=CC(=O)Nc1cc(N2CCOCC2)cc(C)c1Nc1ncc2cc(-c3c(Cl)c(OC)cc(OC)c3Cl)ccc2n1 [COMPOUND 53]	–
–	< 10	A (the ratio is >500)	C=CC(=O)N(CCCCN(CC)CC)c1ncc2cc(-c3c(Cl)c(OC)cc(OC)c3Cl)c(NC(=O)NC(C)(C)C)nc2n1 [COMPOUND 55, N-(7-(3-(tert-butyl)ureido)-6-(2,6-dichloro-3,5-dimethoxyphenyl)pyrido[2,3-d]pyrimidin-2-yl)-N-(4-(diethylamino)butyl) acrylamide]	selectivity score [S(10) @3 μM] [7]: ≤ 0.030

The next lines start with the molecule.

SMILES	IC50 [4] [nM]	IC50 ([6]; 400 uM ATP, 90 minutes, 25 C) [nM]	Ratio FGFR1/FGFR4 [6]	other results
COc1cc(CCc2cc(NC(=O)c3ccc(N4CC(C)NC(C)C4)cc3)n[nH]2)cc(OC)c1 (stereo not drawn) [BGJ398, reference compound]	–	–	–	induction of apoptosis (caspase activity) [1]: induction of apoptosis, although at a higher concentration; tumor volume vs vehicle group ([2]; 20 mg/kg PO QD, entire study, nude mice): significant difference in tumor volume between BGJ398 (20 mg/kg PO QD) and vehicle groups was not observed
C=CC(=O)Nc1cccc(C)c1Nc1cc2c(cn1)cc(-c1cc(OC)cc(OC)c1)c(=O)n2C [COMPOUND 18]	10 to 100	–	–	IC50 [3]: > 1000 nM
C#CC(=O)NCc1cccn2c(-c3cc(NC(=O)NCC(F)(F)F)cc(OC(C)C)c3)cnc12 [COMPOUND 20, N-((3-(3-isopropoxy-5-(3-(2,2,2-trifluoroethyl)ureido)phenyl)imidazo[1,2-a]pyridin-8-yl)methyl)propiolamide]	> 100	–	–	IC50 [3]: > 1000 nM
C=CC(=O)Nc1cccc(C)c1Nc1ncc2cc(-c3c(Cl)c(OC)cc(OC)c3Cl)ccc2n1 [COMPOUND 25, N-(2-((6-(2,6-dichloro-3,5-dimethoxyphenyl)quinazolin-2-yl)amino)-3-methylphenyl)acrylamide]	1 to 10	–	–	induction of apoptosis (caspase activity) [1]: potent induction of apoptosis; tumor volume vs vehicle group ([2]; 100 mg/kg PO BID, Day 4 to Day 19, nude mice): Statistically significant reduction of tumor volumes; also recorded: regressed; tumor volume vs vehicle group ([2]; 300 mg/kg PO BID, Day 4 to Day 19, nude mice): Statistically significant reduction of tumor volumes; also recorded: almost disappeared; body weight change / tolerability [5]: well tolerated
C=CC(=O)Nc1cccc(F)c1Nc1ncc2cc(-c3c(Cl)c(OC)cc(OC)c3Cl)ccc2n1 [COMPOUND 27]	1 to 10	< 10	C (the ratio is ≥100 and <200)	selectivity score [S(10) @3 μM] [7]: ≤ 0.030
C=CC(=O)Nc1ccccc1Nc1cc2c(cn1)cc(-c1c(Cl)c(OC)cc(OC)c1Cl)c(=O)n2C [COMPOUND 31]	< 1	< 10	B (the ratio is ≥200 and <500)	–
C=CC(=O)Nc1ccc(F)c(C)c1Nc1ncc2cc(-c3c(Cl)c(OC)cc(OC)c3Cl)ccc2n1 [COMPOUND 33]	1 to 10	–	F (the ratio of [IC50 for FGFR1]/[IC50 for FGFR4] is less than 10)	IC50 [3]: > 1000 nM
C=CC(=O)Nc1cccc(C)c1Nc1ncc2cc(-c3c(Cl)c(OC)cc(OC)c3Cl)cc(F)c2n1 [COMPOUND 34, N-(2-((6-(2,6-dichloro-3,5-dimethoxyphenyl)-8-fluoroquinazolin-2-yl)amino)-3-methylphenyl)acrylamide]	1 to 10	–	–	IC50 [6]: < 10 nM
C=CC(=O)Nc1ccccc1-c1ccn2c(-c3cc(NC(=O)NCC(F)(F)F)cc(OC(C)C)c3)cnc2c1 [COMPOUND 38, N-(2-(3-(3-isopropoxy-5-(3-(2,2,2-trifluoroethyl)ureido)phenyl)imidazo[1,2-a]pyridin-7-yl)phenyl)acrylamide]	10 to 100	–	E (the ratio is >10 and <50)	–
C=CC(=O)Nc1cccc(C)c1Nc1cc2c(cn1)cc(-c1c(Cl)c(OC)cc(OC)c1Cl)c(=O)n2C [COMPOUND 39]	< 1	< 10	E (the ratio is >10 and <50)	IC50 [3]: > 1000 nM
C=CC(=O)Nc1cccc(C)c1Nc1ncc2nc(-c3c(Cl)c(OC)cc(OC)c3Cl)c(=O)n(C)c2n1 [COMPOUND 45, N-(2-((6-(2,6-dichloro-3,5-dimethoxyphenyl)-8-methyl-7-oxo-7,8-dihydropteridin-2-yl)amino)-3-methylphenyl)acrylamide]	< 1	< 10	E (the ratio is >10 and <50)	IC50 [3]: > 1000 nM
C=CC(=O)N(CCCCN(CC)CC)c1ncc2cc(-c3cc(OC)cc(OC)c3)c(NC(=O)NC(C)(C)C)nc2n1 [COMPOUND 52, N-(7-(3-(tert-butyl)ureido)-6-(3,5-dimethoxyphenyl)pyrido[2,3-d]pyrimidin-2-yl)-N-(4-(diethylamino)butyl)acrylamide]	–	< 10	C (the ratio is ≥100 and <200)	residue bound in crystal structure [8]: binds to the cysteine at residue 552 of FGFR-4; mass difference between protein-inhibitor complex and unmodified protein [9]: 575.1252 daltons
CNC(=O)c1cc(Oc2ccc(NC(=O)Nc3ccc(Cl)c(C(F)(F)F)c3)cc2)ccn1 [Sorafenib, reference compound]	–	–	–	tumor volume vs vehicle group ([2]; 30 mg/kg PO QD, Day 4 to Day 19, nude mice): Statistically significant reduction of tumor volumes
